The record followed here is ChEMBL document CHEMBL1151704, “Nicotinic acid receptor agonists” (J Med Chem, 2008).

The species entered for series [1] is Rattus norvegicus. Put plainly: Reduction of plasma free fatty acid in Sprague-Dawley rat. It is filed as functional.
The nature of series [2]: Therapeutic index, ratio of ED50 for plasma free fatty acid in Sprague-Dawley rat to ED50 for vasodilation in mouse. To be noted: read-out: Ratio ED50.
For series [3], the target named is Hydroxycarboxylic acid receptor 2 (Homo sapiens, UniProt Q8TDS4). Put plainly: Activity at GPR109a assessed as inhibition of forskolin-stimulated cAMP production. The class given is functional. (In general: cAMP levels reflect the balance of adenylyl cyclase and phosphodiesterase activity.)
Sequence of Hydroxycarboxylic acid receptor 2 (Q8TDS4 whole entry): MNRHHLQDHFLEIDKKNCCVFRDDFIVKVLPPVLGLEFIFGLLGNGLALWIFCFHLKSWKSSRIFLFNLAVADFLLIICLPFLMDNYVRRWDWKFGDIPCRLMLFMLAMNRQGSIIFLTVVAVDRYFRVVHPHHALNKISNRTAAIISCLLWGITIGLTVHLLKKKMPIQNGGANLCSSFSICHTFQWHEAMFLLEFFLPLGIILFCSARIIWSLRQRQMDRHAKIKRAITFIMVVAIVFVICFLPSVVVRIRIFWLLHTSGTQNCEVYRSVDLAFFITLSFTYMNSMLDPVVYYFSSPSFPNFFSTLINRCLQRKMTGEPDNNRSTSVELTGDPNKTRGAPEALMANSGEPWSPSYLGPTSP
Series [4] concerns the target Hydroxycarboxylic acid receptor 3 (Homo sapiens, UniProt P49019). Put plainly: Activity at GPR109b assessed as inhibition of forskolin-stimulated cAMP production. The class given is functional.

Some results are limits rather than exact numbers.

Sequence of Hydroxycarboxylic acid receptor 3 (P49019 whole entry): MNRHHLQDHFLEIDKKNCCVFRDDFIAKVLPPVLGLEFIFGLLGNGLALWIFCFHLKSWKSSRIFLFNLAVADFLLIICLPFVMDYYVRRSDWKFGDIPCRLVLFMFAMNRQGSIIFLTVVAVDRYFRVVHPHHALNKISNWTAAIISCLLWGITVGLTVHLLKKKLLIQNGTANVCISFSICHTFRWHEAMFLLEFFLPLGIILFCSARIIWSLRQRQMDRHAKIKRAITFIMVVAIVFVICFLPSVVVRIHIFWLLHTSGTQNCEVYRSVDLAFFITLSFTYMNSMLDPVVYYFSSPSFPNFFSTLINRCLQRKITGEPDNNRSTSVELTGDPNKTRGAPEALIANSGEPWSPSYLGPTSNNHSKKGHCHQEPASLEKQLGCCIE

A word on the ED50: it is the dose that gives a 50% effect, or the effect in half of the subjects. Regarding `O=C(CCc1nc(-c2ccc(O)cc2)no1)Nc1ccccc1C(=O)O`, it took a dose of 9 mg/kg to reach the 50% effect level in series [1] (ED50). For the same molecule, the selectivity ratio in series [2] is > 70.
What is called EC50 is the concentration needed to bring the measured effect to its halfway point. With `CC(C)n1nnc2cc(C(=O)O)ccc21`, in series [3], the EC50 turned out to be 400 nM.
For orientation: IC50 means the concentration that inhibits the measured activity by half. With `CC1(c2ccccc2)OC(C(=O)O)=CC1=O` (configuration not stated) [ACIFRAN], the IC50 in series [3] is 500 nM; in series [4], 3000 nM.
`O=C(CCc1nc(-c2ccc(O)cn2)no1)Nc1ccccc1C(=O)O`: in series [1], the ED50 amounted to 9 mg/kg. Besides, in series [2], the selectivity ratio is > 70.
